Data on four compounds can be found in ChEMBL document CHEMBL1201862, “PubChem BioAssay data set” (2004).

Some test systems named below: A498; MCF7; DU-145; M14; HCT-116; SF-295; K562; SK-MEL-2; RXF 393; SNB-19; Malme-3M; IGROV-1; U-251; NCI-H460; KM12; MDA-MB-231; HT-29; MDA-N; BT-549; SNB-75.
Assay in all cases: growth of human tumour cells (NCI), 48 h

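Assay format: 96-well plates, 48-hour exposure. The concentration for 50% growth inhibition is given as GI50.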 Calls of active or inactive are those of the source. No stated cut-off is given here; in the data, active = GI50 up to about 1.1 µM and inactive = higher.

For the compound `CC1CC[C@@]2(OC1)OC1C[C@H]3[C@@H]4CC=C5CC(OC6OC(CO)C(OC7OC(CO)C(O)C(OC8OCC(O)C(O)C8O)C7OC7OC(CO)C(OC8OC(C)C(OC9OC(C)C(O)C(O)C9O)C(O)C8O)C(O)C7O)C(O)C6O)CCC5(C)[C@H]4CCC3(C)C1[C@@H]2C` (stereo not given in full), the GI50 in the assay with A498 is 2.02 µM (inactive); in the assay on MCF7 it was 14.1 µM (inactive); in the assay on DU-145, 7.87 µM (inactive); in the assay with M14 it was 4.28 µM (inactive); in the assay with HCT-116, 8.47 µM (inactive); with SF-295 it was 6.71 µM (inactive). Further, the GI50 with K562 was 8.05 µM (inactive); in the assay with SK-MEL-2, 6.71 µM (inactive); with RXF 393 it was 6.34 µM (inactive); in the assay with SNB-19 it was 5.61 µM (inactive); in the assay on Malme-3M, 10.6 µM (inactive); with IGROV-1, 8.49 µM (inactive). The GI50 in the assay on U-251 is 9.04 µM (inactive); in the assay with NCI-H460 it was 9.93 µM (inactive); in the assay on KM12 it was 9.33 µM (inactive); in the assay with MDA-MB-231, 5.36 µM (inactive); with HT-29, 8.17 µM (inactive); with MDA-N, 9.02 µM (inactive). The GI50 in the assay on BT-549 is 9.2 µM (inactive).

For `CC(=O)c1ccc2c3c1[C@@H]1O[C@@H]1c1cccc(c1-3)[C@@H]1O[C@H]21`, the GI50 is 21.5 µM (inactive) in the assay with A498; 4 µM (inactive) in the assay with MCF7; 8.39 µM (inactive) with DU-145; 6.85 µM (inactive) in the assay on M14; 4.54 µM (inactive) with HCT-116; 15 µM (inactive) with SF-295. Also, the GI50 in the assay with K562 was 4.47 µM (inactive); in the assay with SK-MEL-2, 14.1 µM (inactive); with RXF 393 it was 11.5 µM (inactive); in the assay with SNB-19, 20.3 µM (inactive); in the assay with Malme-3M, 7.4 µM (inactive); with IGROV-1, 0.782 µM (active). Further, the GI50 in the assay with U-251 was 6.62 µM (inactive); with SNB-75, 13.5 µM (inactive); in the assay with KM12 it was 7.52 µM (inactive); with MDA-MB-231, 17.7 µM (inactive); in the assay with HT-29, 5.55 µM (inactive); in the assay with MDA-N it was 13.5 µM (inactive). Further, the GI50 in the assay on BT-549 is 15.1 µM (inactive).

`Nc1c(-c2nc3ccccc3o2)sc(=S)n1-c1ccc(Cl)cc1`: the GI50 was 37.7 µM (inactive) in the assay on A498; 5.07 µM (inactive) in the assay on MCF7; 12 µM (inactive) in the assay on DU-145; 15.4 µM (inactive) with M14; 12.3 µM (inactive) with HCT-116; 10.6 µM (inactive) in the assay with SF-295. Also, the GI50 is 0.474 µM (active) with K562; 11.2 µM (inactive) in the assay on SK-MEL-2; 23 µM (inactive) in the assay with RXF 393; 13.7 µM (inactive) in the assay with SNB-19; 19.1 µM (inactive) in the assay on Malme-3M; 17.7 µM (inactive) with IGROV-1. Moreover, the GI50 in the assay with U-251 was 15.6 µM (inactive); with NCI-H460, 23 µM (inactive); with KM12 it was 22.4 µM (inactive); in the assay on MDA-MB-231, 19.3 µM (inactive); in the assay on HT-29, 37.4 µM (inactive); in the assay with MDA-N it was 21.4 µM (inactive). In the assay on BT-549, the GI50 is 31 µM (inactive).

For the compound `CC12CC(OC(=O)[C@]1(C)O)[C@@H]([C@]1(O)CC[C@H]3[C@@H]4C[C@H]5O[C@]56[C@@H](O)C=CC(=O)[C@]6(C)[C@H]4CC[C@@]31C)C2` (stereo not given in full), the GI50 with A498 was 13.8 µM (inactive); in the assay with MCF7, 3.08 µM (inactive); in the assay with DU-145 it was 22.2 µM (inactive); in the assay on M14, 9.02 µM (inactive); with HCT-116 it was 3.63 µM (inactive); in the assay with SF-295, 33.7 µM (inactive). Besides, the GI50 in the assay with K562 was 3.17 µM (inactive); in the assay on SK-MEL-2, 6.08 µM (inactive); in the assay with RXF 393, 3.01 µM (inactive); in the assay on SNB-19 it was 40.1 µM (inactive); in the assay on IGROV-1, 17.3 µM (inactive); in the assay with U-251, 13.8 µM (inactive). The GI50 with NCI-H460 was 12.3 µM (inactive); with KM12, 14.4 µM (inactive); in the assay with MDA-MB-231, 5.2 µM (inactive); in the assay with HT-29, 4.03 µM (inactive); with MDA-N, 7.21 µM (inactive); in the assay with BT-549, 4.06 µM (inactive).
